How the values were obtained:
Siglec-2 (human CD22) = target: T1, Siglec-2 (human CD22) (Homo sapiens, UniProt P20273); experiment: Hapten inhibition assay, Siglec-2 (human CD22); format: binding; settings: for Siglec-2 (human CD22) rIP: quotient IC50 reference compound / IC50 compound; for IC50: unit inferred
T1 sequence (P20273 20-138 limits assumed): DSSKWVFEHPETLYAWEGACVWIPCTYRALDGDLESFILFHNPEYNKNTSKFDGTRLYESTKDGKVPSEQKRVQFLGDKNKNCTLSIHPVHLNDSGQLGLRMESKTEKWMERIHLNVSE
Method: (§1) Preferably, the inhibition can be determined by a Hapten inhibition test. […] After overnight incubation at 4° C. the unbound complexes are removed by washing the cells and the bound radioactivity is determined. From the data obtained in this way, the concentrations are found which lead to 50% inhibition of the binding (IC50 values) (5, 6). Specially preferred during the Hapten inhibition test was 10 μl of the complex solution with an activity of 10^3 Bq ^125I mixed with the same volume of a solution of the substance to be investigated (concentrated three times) and incubated at 4° C. for one hour. Then followed the addition of 10 μl of a suspension of target cells, preferably 0.25 to 0.5% of human erythrocytes and incubation overnight at 4° C. The unbound radioactivity is removed by washing the cells five times with 200 μl of washing buffer, preferably phosphate-buffered saline with 0.1% (W/V) bovine serum albumin, and the cell-bound activity is determined with a γ-counter. […] The inhibition is determined in that the value without inhibitor is set to 0% and that with the sialidase-treated cells is set equal to 100%.
(§2) The IC50 value is the siglec inhibitor concentration which leads to 50% inhibition in the binding in the Hapten inhibition assay.

Siglec-2 (murine CD22) = target: T2, Siglec-2 (murine CD22) (Mus musculus, UniProt P35329); experiment: Hapten inhibition assay, Siglec-2 (murine CD22); format: binding; settings: for Siglec-2 (murine CD22) rIP: quotient IC50 reference compound / IC50 compound
T2 sequence (P35329 22-148 limits assumed): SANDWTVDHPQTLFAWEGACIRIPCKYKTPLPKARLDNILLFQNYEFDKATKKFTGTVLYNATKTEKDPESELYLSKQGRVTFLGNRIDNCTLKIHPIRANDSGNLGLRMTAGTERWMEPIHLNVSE
Method: as §1, §2

Siglec-1 (sialoadhesin) = Siglec-1 (sialoadhesin) (Mus musculus, UniProt Q62230); experiment: Hapten inhibition assay, Siglec-1 (sialoadhesin); format: binding; settings: for Siglec-1 (sialoadhesin) percentage in parentheses below the IC50 bound: at the concentration of the IC50 bound, meaning not defined in the patent; for Siglec-1 (sialoadhesin) rIP: quotient IC50 reference compound / IC50 compound
Sequence of Siglec-1 (sialoadhesin) (Q62230 20-136 limits assumed): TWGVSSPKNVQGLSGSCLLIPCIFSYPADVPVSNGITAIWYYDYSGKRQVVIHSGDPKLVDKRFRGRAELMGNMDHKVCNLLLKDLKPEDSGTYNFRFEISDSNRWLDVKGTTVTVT
Method: as §1, §2

Siglec-4a (MAG) = target: T3, Siglec-4a (MAG) (UniProt P20917); experiment: Hapten inhibition assay, Siglec-4a (MAG); settings: for Siglec-4a (MAG) rIP: quotient IC50 reference compound / IC50 compound; for IC50: read-out: Siglec-4a (MAG) IC50, unit inferred; for binds stronger to siglec-4a than the reference compound: relative to 2-alpha-methyl-5-N-acetyl-neuraminic acid
T3 sequence (P20917 1-627): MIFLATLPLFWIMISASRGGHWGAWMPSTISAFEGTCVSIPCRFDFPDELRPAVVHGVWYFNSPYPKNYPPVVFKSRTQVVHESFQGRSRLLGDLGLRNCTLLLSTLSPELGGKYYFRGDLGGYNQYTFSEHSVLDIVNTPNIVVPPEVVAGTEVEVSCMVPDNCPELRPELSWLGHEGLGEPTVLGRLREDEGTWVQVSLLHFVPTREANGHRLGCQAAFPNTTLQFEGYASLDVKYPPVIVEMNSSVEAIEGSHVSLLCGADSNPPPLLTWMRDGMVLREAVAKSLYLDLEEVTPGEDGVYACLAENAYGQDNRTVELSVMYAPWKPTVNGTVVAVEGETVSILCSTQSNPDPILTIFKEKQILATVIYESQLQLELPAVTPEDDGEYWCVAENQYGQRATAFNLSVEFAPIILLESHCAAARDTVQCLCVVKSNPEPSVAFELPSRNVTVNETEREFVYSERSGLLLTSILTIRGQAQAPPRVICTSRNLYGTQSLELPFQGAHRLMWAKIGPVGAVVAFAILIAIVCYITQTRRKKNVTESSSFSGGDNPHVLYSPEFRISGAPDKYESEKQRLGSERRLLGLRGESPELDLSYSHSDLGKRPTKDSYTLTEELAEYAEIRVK
Method: Preferably, the inhibition can be determined by a Hapten inhibition test. […] After overnight incubation at 4° C. the unbound complexes are removed by washing the cells and the bound radioactivity is determined. […] Then followed the addition of 10 μl of a suspension of target cells, preferably 0.25 to 0.5% of human erythrocytes and incubation overnight at 4° C. The unbound radioactivity is removed by washing the cells five times with 200 μl of washing buffer, preferably phosphate-buffered saline with 0.1% (W/V) bovine serum albumin, and the cell-bound activity is determined with a γ-counter. […] The inhibition is determined in that the value without inhibitor is set to 0% and that with the sialidase-treated cells is set equal to 100%.

Row | SMILES | Siglec-2 (human CD22) rIP (Siglec-2 (human CD22)) | IC50 (Siglec-2 (human CD22)) [µM] | Siglec-2 (murine CD22) rIP (Siglec-2 (murine CD22)) | IC50 (Siglec-2 (murine CD22); unit inferred) [mM] | Siglec-1 (sialoadhesin) percentage in parentheses below the IC50 bound (Siglec-1 (sialoadhesin)) | IC50 (Siglec-1 (sialoadhesin); bounds given in mM) [mM] | Siglec-1 (sialoadhesin) rIP (Siglec-1 (sialoadhesin)) | Siglec-4a (MAG) rIP (Siglec-4a (MAG)) | IC50 (Siglec-4a (MAG)) [µM] | IC50 (Siglec-1 (sialoadhesin); unit inferred) [mM] | Siglec-2 (murine CD22) percentage in parentheses below the IC50 bound (Siglec-2 (murine CD22); at the concentration of the IC50 bound, meaning not defined in the patent) | IC50 (Siglec-2 (murine CD22); bounds given in mM) [mM] | binds stronger to siglec-4a than the reference compound (Siglec-4a (MAG))
1 | CCOc1c(N[C@H]2[C@H]([C@H](O)[C@H](O)CO)O[C@@](OC)(C(=O)O)C[C@@H]2O)c(=O)c1=O [Methyl-α-5-N-(etoxycylcobutendion)-neuraminic acid] | 2.3 | 940 | 1.5 | 3.37 | (92%) | > 5 | <<0.15 | 0.5 | 4300 |  |  |  | 
2 | CO[C@]1(C(=O)O)C[C@H](O)[C@@H](NC(C)=O)[C@H]([C@H](O)[C@H](O)CNC(=O)c2ccc([N+](=O)[O-])cc2[N+](=O)[O-])O1 [Methyl-α-9-N-(2,4-dinitrobenzoyl)-amino-9-desoxy-Neu5Ac] | 7.7 | 287 | 7.9 | 0.593 |  |  | 0.3 | 18 | 205 | 0.733 |  |  | 
3 | CO[C@]1(C(=O)O)C[C@H](O)[C@@H](NC(C)=O)[C@H]([C@H](O)[C@H](O)CNC(=O)c2cc(O)cc(O)c2)O1 [Methyl-α-9-N-(3,5-dihydroxybenzoyl)-amino-9-desoxy-Neu5Ac] | 19 | 73 |  | 1.47 |  |  | 1.7 | 166 | 28 | 0.525 |  |  | 
4 | COc1ccc(C(=O)NC[C@@H](O)[C@@H](O)[C@@H]2O[C@@](OC)(C(=O)O)C[C@H](O)[C@H]2NC(C)=O)cc1 [Methyl-α-9-N-(4-methoxybenzoyl)-amino-9-desoxy-Neu5Ac] | 19 | 120 | 7.4 | 0.667 |  |  | 8.4 | 393 | 12 | 0.042 |  |  | 
5 | CO[C@]1(C(=O)O)C[C@H](O)[C@@H](NC(C)=O)[C@H]([C@H](O)[C@H](O)CNC(=O)c2ccc(NC(C)=O)cc2)O1 [Methyl-α-9-N-(acetamidobenzoyl)-amino-9-desoxy-Neu5Ac] | 2.4 | 580 |  | 1.03 |  |  | 3.0 | 77 | 62 | 0.295 |  |  | 
6 | COC1(C(=O)O)CC(O)C(NC(C)=O)C(C(O)C(O)CNC(=O)c2cccc3cc4ccccc4cc23)O1 (stereo not drawn) [Methyl-α-9-N-(anthracen-5-carbonyl)-amino-9-desoxy-Neu5Ac] | 4.9 | 338 | 7.4 | 0.647 |  |  | 0.5 | 28 | 162 | 0.75 |  |  | 
7 | COC1(C(=O)O)CC(O)C(NC(C)=O)C(C(O)C(O)CNC(=O)c2ccc3ccccc3n2)O1 (stereo not drawn) [Methyl-α-9-N-(chinaldine-2-carbonyl)-amino-9-desoxy-Neu5Ac] |  | 41 |  |  | (100%) | > 2.5 | <<0.2 | 54 | 87 |  | (100%) | > 10 | 
8 | CO[C@]1(C(=O)O)C[C@H](O)[C@@H](NC(C)=O)[C@H]([C@H](O)[C@H](O)CNC(=O)C(c2ccccc2)c2ccccc2)O1 [Methyl-α-9-N-(diphenylacetyl)-amino-9-desoxy-Neu5Ac] |  | 35 |  | 0.103 |  |  | 0.2 | 31 | 150 | 4.4 |  |  | 
9 | CO[C@]1(C(=O)O)C[C@H](O)[C@@H](NC(C)=O)[C@H]([C@H](O)[C@H](O)CNC(=O)c2cccc3ccccc23)O1 [Methyl-α-9-N-(naphthyl-1-carbonyl)-amino-9-desoxy-Neu5Ac] | 27 | 37 | 64 | 0.092 |  |  | 0.3 | 84 | 56 | 3 |  |  | 

Second part, the compound after the results:

Row | Siglec-2 (human CD22) rIP (Siglec-2 (human CD22)) | IC50 (Siglec-2 (human CD22)) [µM] | Siglec-2 (murine CD22) rIP (Siglec-2 (murine CD22)) | IC50 (Siglec-2 (murine CD22); unit inferred) [mM] | Siglec-1 (sialoadhesin) percentage in parentheses below the IC50 bound (Siglec-1 (sialoadhesin)) | IC50 (Siglec-1 (sialoadhesin); bounds given in mM) [mM] | Siglec-1 (sialoadhesin) rIP (Siglec-1 (sialoadhesin)) | Siglec-4a (MAG) rIP (Siglec-4a (MAG)) | IC50 (Siglec-4a (MAG)) [µM] | IC50 (Siglec-1 (sialoadhesin); unit inferred) [mM] | Siglec-2 (murine CD22) percentage in parentheses below the IC50 bound (Siglec-2 (murine CD22); at the concentration of the IC50 bound, meaning not defined in the patent) | IC50 (Siglec-2 (murine CD22); bounds given in mM) [mM] | binds stronger to siglec-4a than the reference compound (Siglec-4a (MAG)) | SMILES
10 | 131 | 8 | 83 | 0.071 |  |  | 0.5 | 13 | 367 | 1.75 |  |  |  | CO[C@]1(C(=O)O)C[C@H](O)[C@@H](NC(C)=O)[C@H]([C@H](O)[C@H](O)CNC(=O)Cc2ccc3ccccc3c2)O1 [Methyl-α-9-N-(naphthyl-2-acetyl)-amino-9-desoxy-Neu5Ac]
11 | 167 | 6 | 18 | 0.27 |  |  | 12 | 236 | 20 | 0.078 |  |  | approx. 236 times | COC1(C(=O)O)CC(O)C(NC(C)=O)C(C(O)C(O)CNC(=O)c2ccc3ccccc3c2)O1 (stereo not drawn) [Methyl-α-9-N-(naphthyl-2-carbonyl)-amino-9-desoxy-Neu5Ac]
12 | 3.3 | 360 | 2.0 | 2.5 |  |  | 0.3 | 42 | 107 | 7 |  |  |  | COC1(C(=O)O)CC(O)C(NC(C)=O)C(C(O)C(O)CNC(=O)c2c(F)c(F)c(F)c(F)c2F)O1 (stereo not drawn) [Methyl-α-9-N-(pentafluorbenzoyl)-amino-9-desoxy-Neu5Ac]
13 | 111 | 10 | 6.7 | 0.887 |  |  | 1.5 |  |  | 0.54 |  |  |  | COC1(C(=O)O)CC(O)C(NC(C)=O)C(C(O)C(O)CNC(=O)c2cccc(Oc3ccccc3)c2)O1 (stereo not drawn) [Methyl-α-9-N-(phenoxy-3-benzoyl)-amino-9-desoxy-Neu5Ac]
14 | 2.3 | 445 | 14 | 0.335 |  |  | 0.5 | 170 | 25 |  |  |  |  | CO[C@]1(C(=O)O)C[C@H](O)[C@@H](NC(C)=O)[C@H]([C@H](O)[C@H](O)CNC(=O)c2cccnc2)O1 [Methyl-α-9-N-(pyridine-3-carbonyl)-amino-9-desoxy-Neu5Ac]
15 | 0.6 | 1800 | 2.7 | 1.75 |  |  | 0.2 | 3.7 | 2150 | 3.82 |  |  |  | CO[C@]1(C(=O)O)C[C@H](O)[C@@H](NC(C)=O)[C@H]([C@H](O)[C@H](O)CNC(C)=O)O1 [Methyl-α-9-N-acetyl-amino-9-desoxy-Neu5Ac]
16 | 5.7 | 290 | 3.7 | 1.09 |  |  | 1.8 | 704 | 7 | 0.539 |  |  | approximately 704 times | CO[C@]1(C(=O)O)C[C@H](O)[C@@H](NC(C)=O)[C@H]([C@H](O)[C@H](O)CNC(=O)c2ccccc2)O1 [Methyl-α-9-N-benzoyl-amino-9-desoxy-Neu5Ac]
17 | 4.1 | 383 | 6.9 | 0.76 | (93%) | > 1 | 0.2 | 50 | 110 |  |  |  |  | CO[C@]1(C(=O)O)C[C@H](O)[C@@H](NC(C)=O)[C@H]([C@H](O)[C@H](O)CNC(=O)C2CCCCC2)O1 [Methyl-α-9-N-cyclohexanoyl-amino-9-desoxy-Neu5Ac]
18 | 1.0 | 1390 | 1.0 | 4.69 |  |  | 1.0 | 1.0 | 4720 | 0.884 |  |  |  | CO[C@]1(C(=O)O)C[C@H](O)[C@@H](NC(C)=O)[C@H]([C@H](O)[C@H](O)CO)O1 [Methyl-α-Neu5Ac, reference compound]
